What was measured:
WT (wild-type) LRRK2 = settings: cited from earlier work
mutant G2019S type LRRK2 = settings: cited from earlier work
LRRK2 [1] = biological target: LRRK2 (Rattus norvegicus, UniProt F1LNJ1); settings: IC50 for displacement of [^3H]LRRK2-IN-1 binding, rat kidney; 10 nM radioligand
LRRK2 [2] = biological target: LRRK2 (Homo sapiens, UniProt Q5S007); assay type: binding
LRRK2 kinase = LRRK2 kinase inhibitor; cited from earlier work
LRRK2 [3] = biological target: LRRK2 (Mus musculus, UniProt Q5S006); assay: In vivo blocking study: [^3H]LRRK2-IN-1 co-administered with Pf-06447475 in mice; settings: for % blocking (max.) of [^3H]LRRK2-IN-1 uptake: 10 mg/kg Pf-06447475, 10 mg/kg
Chain of LRRK2 (Mus musculus, UniProt Q5S006) (Q5S006 whole entry): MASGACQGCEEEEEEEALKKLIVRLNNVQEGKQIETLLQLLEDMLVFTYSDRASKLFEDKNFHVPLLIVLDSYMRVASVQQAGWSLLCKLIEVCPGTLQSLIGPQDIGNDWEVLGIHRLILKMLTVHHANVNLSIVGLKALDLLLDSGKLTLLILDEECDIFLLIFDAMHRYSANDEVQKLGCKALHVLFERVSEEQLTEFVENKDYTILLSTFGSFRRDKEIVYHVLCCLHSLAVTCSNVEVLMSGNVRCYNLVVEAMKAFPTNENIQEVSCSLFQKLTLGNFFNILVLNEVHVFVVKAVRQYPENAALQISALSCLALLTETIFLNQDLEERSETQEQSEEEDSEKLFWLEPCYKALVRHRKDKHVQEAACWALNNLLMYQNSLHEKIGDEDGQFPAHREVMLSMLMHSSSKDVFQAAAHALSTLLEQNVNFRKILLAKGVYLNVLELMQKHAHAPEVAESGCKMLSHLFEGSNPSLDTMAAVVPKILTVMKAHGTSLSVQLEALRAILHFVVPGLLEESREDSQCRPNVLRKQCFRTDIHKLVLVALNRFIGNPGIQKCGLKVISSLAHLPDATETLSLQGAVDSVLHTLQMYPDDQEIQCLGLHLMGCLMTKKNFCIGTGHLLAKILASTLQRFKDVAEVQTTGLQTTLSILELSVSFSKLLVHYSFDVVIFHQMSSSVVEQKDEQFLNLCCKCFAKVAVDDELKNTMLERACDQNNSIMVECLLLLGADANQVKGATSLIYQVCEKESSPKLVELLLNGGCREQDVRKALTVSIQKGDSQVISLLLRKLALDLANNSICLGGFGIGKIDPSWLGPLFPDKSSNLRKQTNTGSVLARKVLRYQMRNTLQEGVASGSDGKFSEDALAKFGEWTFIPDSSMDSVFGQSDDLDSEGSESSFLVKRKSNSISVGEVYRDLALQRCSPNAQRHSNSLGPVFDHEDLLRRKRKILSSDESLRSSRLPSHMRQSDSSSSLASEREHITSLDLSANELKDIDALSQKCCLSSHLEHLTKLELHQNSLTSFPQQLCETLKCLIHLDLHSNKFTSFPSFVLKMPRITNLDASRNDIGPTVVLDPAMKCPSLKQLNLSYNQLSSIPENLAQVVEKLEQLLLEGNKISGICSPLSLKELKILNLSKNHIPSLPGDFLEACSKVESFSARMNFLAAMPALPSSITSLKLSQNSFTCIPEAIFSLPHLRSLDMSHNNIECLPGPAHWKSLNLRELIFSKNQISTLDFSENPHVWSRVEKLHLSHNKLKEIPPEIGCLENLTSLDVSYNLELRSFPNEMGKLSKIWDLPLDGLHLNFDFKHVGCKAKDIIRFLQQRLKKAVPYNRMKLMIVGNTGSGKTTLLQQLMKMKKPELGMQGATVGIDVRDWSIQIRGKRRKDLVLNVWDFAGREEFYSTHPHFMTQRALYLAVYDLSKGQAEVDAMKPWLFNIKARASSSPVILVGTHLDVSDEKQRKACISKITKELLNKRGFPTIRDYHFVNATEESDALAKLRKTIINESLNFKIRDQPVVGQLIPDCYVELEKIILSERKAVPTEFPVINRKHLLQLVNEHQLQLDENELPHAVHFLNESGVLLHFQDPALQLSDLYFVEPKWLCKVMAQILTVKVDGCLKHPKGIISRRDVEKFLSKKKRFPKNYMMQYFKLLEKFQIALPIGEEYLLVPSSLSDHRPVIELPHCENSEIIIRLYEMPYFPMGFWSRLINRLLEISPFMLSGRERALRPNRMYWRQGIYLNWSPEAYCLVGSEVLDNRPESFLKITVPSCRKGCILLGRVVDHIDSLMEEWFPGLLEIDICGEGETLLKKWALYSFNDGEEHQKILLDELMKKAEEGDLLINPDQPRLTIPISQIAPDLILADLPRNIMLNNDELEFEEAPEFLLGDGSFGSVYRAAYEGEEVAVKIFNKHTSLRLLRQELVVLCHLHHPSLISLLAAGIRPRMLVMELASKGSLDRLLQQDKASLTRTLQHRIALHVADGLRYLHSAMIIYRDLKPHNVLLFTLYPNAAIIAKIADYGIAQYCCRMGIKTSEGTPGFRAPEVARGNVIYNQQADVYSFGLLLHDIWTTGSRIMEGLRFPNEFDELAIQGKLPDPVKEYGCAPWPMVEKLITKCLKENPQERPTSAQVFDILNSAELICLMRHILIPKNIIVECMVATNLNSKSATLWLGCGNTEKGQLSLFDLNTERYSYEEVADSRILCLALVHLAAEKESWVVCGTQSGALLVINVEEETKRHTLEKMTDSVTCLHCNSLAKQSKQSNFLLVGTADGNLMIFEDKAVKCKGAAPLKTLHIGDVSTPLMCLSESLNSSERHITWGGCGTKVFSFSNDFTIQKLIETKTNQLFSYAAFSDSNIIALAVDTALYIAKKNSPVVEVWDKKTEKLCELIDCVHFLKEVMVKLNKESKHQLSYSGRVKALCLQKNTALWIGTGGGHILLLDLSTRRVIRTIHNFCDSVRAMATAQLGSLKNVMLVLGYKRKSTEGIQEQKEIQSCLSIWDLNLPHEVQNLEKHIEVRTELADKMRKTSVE

Chain of LRRK2 (Rattus norvegicus, UniProt F1LNJ1) (F1LNJ1 1-2526): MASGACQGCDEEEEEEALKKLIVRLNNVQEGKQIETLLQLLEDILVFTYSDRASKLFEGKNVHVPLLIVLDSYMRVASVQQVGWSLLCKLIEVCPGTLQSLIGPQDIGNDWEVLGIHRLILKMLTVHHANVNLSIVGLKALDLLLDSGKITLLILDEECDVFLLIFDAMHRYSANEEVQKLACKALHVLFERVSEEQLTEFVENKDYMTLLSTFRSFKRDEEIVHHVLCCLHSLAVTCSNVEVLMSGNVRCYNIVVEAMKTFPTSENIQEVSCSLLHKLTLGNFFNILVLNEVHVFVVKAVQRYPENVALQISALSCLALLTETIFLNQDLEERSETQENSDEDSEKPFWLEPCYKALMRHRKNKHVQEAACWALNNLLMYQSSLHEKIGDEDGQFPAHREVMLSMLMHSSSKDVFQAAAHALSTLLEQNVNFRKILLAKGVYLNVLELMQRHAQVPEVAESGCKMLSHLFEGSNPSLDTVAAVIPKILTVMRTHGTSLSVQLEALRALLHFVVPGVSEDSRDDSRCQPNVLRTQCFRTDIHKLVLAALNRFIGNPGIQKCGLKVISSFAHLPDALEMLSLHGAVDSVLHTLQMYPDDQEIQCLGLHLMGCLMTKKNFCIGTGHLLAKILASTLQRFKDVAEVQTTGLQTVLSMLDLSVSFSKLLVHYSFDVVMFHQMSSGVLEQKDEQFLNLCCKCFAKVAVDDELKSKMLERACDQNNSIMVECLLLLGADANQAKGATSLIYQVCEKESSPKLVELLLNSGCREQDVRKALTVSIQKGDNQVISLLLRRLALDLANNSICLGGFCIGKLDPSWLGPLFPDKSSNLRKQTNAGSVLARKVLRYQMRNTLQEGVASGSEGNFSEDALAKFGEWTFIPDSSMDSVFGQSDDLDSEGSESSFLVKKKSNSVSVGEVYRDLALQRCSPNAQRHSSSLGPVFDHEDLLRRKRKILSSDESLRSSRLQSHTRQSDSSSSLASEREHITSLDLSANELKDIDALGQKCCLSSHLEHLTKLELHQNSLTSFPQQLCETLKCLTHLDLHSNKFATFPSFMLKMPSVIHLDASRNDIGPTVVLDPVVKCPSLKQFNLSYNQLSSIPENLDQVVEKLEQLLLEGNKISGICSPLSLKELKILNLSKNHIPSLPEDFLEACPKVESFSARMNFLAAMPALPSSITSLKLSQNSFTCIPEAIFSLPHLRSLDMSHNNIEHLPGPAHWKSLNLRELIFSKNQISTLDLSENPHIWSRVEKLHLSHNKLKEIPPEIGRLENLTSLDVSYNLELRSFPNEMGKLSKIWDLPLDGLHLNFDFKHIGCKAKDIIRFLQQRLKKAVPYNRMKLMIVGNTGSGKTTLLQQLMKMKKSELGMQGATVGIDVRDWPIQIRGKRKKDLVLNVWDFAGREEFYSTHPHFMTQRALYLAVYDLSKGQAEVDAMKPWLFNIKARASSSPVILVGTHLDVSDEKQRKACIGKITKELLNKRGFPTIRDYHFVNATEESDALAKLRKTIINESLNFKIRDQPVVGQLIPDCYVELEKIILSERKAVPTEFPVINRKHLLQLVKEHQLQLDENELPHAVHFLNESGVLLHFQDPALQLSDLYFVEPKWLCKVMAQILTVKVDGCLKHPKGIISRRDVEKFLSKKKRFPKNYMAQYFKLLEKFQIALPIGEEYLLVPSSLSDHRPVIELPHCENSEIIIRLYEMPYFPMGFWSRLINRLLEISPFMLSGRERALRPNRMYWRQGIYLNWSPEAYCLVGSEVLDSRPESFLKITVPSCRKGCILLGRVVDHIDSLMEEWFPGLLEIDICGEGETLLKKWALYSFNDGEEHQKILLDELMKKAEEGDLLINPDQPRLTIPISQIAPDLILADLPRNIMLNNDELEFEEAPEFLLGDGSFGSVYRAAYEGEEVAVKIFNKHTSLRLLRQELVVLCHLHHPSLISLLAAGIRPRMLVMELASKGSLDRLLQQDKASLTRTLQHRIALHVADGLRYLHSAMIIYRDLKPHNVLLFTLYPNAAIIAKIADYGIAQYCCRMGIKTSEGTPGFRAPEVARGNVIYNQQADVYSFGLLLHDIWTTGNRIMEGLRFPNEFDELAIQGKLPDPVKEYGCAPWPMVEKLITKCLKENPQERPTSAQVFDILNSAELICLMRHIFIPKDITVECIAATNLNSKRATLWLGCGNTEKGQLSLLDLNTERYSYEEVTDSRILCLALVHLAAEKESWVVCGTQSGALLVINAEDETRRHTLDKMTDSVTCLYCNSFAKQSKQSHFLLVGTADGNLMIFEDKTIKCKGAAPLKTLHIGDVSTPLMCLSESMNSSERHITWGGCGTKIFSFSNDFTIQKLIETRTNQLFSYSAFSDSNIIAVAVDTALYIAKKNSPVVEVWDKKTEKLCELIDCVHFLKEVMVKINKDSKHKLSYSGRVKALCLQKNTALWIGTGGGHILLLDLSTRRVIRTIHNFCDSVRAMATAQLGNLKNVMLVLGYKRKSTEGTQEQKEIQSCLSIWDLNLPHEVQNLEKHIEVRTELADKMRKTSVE

| Structure (SMILES) | IC50 (WT (wild-type) LRRK2) [nM] | IC50 (mutant G2019S type LRRK2) [nM] | IC50 (LRRK2 [1]) [nM] | IC50 (LRRK2 [2]) [nM] | IC50 (LRRK2 kinase) [nM] | % blocking (max.) of [^3H]LRRK2-IN-1 uptake (LRRK2 [3]; brain) [%] | Reduction of [^3H]LRRK2-IN-1 uptake (LRRK2 [3]; heart, 10 mg/kg Pf-06447475) [%] | Reduction of [^3H]LRRK2-IN-1 uptake (%ID/g) (LRRK2 [3]; in the kidney or brain, 10 mg/kg Pf-06447475) | % blocking (max.) of [^3H]LRRK2-IN-1 uptake (LRRK2 [3]; kidney) [%] | Reduction of [^3H]LRRK2-IN-1 uptake (LRRK2 [3]; liver, 10 mg/kg Pf-06447475) [%] | Reduction of [^3H]LRRK2-IN-1 uptake (LRRK2 [3]; lung, 10 mg/kg Pf-06447475) [%] | Reduction of [^3H]LRRK2-IN-1 uptake (LRRK2 [3]; muscle, 10 mg/kg Pf-06447475) [%] | Reduction of [^3H]LRRK2-IN-1 uptake (LRRK2 [3]; spleen, 10 mg/kg Pf-06447475) [%] |
| --- | --- | --- | --- | --- | --- | --- | --- | --- | --- | --- | --- | --- | --- |
| COc1cc(C(=O)N2CCC(N3CCN(C)CC3)CC2)ccc1Nc1ncc2c(n1)N(C)c1ccccc1C(=O)N2C [LRRK2-IN-1] | 13 | 6 | 40 ± 4 | 73 ± 6 |  |  |  |  |  |  |  |  |  |
| N#Cc1cccc(-c2c[nH]c3ncnc(N4CCOCC4)c23)c1 [Pf-06447475, 3-[4-(morpholin-4-yl)-7H-pyrrolo[2,3-d]pyrimidin-5-yl] benzonitrile] |  |  |  |  | 3 | 62 | 72 | 50–60% | 54 | 34 | 78 | 62 | 40 |
